# Test results as given in patent US20090088403A1, “A3 ADENOSINE RECEPTORS AS TARGETS FOR THE MODULATION OF CENTRAL SEROTONERGIC SIGNALING” (priority 2007, published 2009).
# Legend:
# Assay type in all cases: cell-based
# [1] = tested on: SERT; test: [3H]5-HT transport assay in mouse brain synaptosomes; settings: for effect on IB-MECA (10 nM) stimulated 5-HT uptake: inhibitor 10 min before IB-MECA, MRS1191 1 μM, DT-2 1.0 μM, H8 0.1 μM, SB203580 1.0 μM
# [2] = tested on: GABA transport activity; test: [3H]GABA uptake in mouse striatal and midbrain synaptosomes; settings: 10 min
# [3] = tested on: dopamine transporter; test: [3H]DA uptake in mouse striatal and midbrain synaptosomes; settings: 10 min
# [4] = midbrain synaptosomes, IB-MECA 10 nM 10 min, MRS1191 1 μM 10 min before IB-MECA, Michaelis-Menten fit, mean (n=3) ±SEM
compound,measurement,setting,value
"CCNC(=O)C1OC(n2cnc3c(N)ncnc32)C(O)C1O (stereo not shown) [NECA, 5′-N-ethyl-carboxamidoadenosine]",effect on SERT activity,"[1]; midbrain synaptosomes, 10 min at 37° C.",fails to stimulate SERT activity
same,effect on 5-HT transport at high concentration,"[1]; midbrain synaptosomes, concentrations above 1 μM",inhibited 5-HT transport
"CCOC(=O)C1=C(C)NC(c2ccccc2)=C(C(=O)OCc2ccccc2)C1C#Cc1ccccc1 (racemic) [MRS1191, 3-ethyl-5-benzyl-2-methyl-phenylethynyl-6-phenyl-1,4(±)dihydropyridine-3,5-dicarboxylate]",effect on IB-MECA (10 nM) stimulated 5-HT uptake,[1]; midbrain synaptosomes,prevented the stimulatory actions of IB-MECA on 5-HT uptake
same,effect alone on basal 5-HT transport,"[1]; synaptosomes, 0.01-100 μM, data not shown",did not influence basal 5-HT transport
"CNCCNS(=O)(=O)c1cccc2cnccc12 [H8, N-[2-(methylamino)ethy]-5-isoquinoline-sulfonamide]",effect on IB-MECA (10 nM) stimulated 5-HT uptake,[1]; midbrain synaptosomes,blocked IB-MECA regulation of SERT
"C[C@H](Cc1ccccc1)Nc1ncnc2c1ncn2[C@@H]1O[C@H](CO)[C@@H](O)[C@H]1O [R-PIA, (R)—N^6-phenylisopropyladenosine]",impact on 5-HT transport,"[1]; midbrain synaptosomes, 1~1000 nM, 10 min at 37° C.",No impact
N6-(3-iodobenzyl)-N-methyl-5′carbamoyladenosine [IB-MECA],effect on GABA uptake,[2],no stimulation
same,increase in 5-HT transport,"[1]; midbrain and hippocampal synaptosomes of A3AR+/+ mice, 10 nM, 10 min",40-50%
same,stimulation of SERT activity in A3AR−/− mice,"[1]; midbrain and hippocampal synaptosomes of A3AR−/− mice, 10 nM, 10 min",failed to stimulate SERT activity
same,effect on SERT Vmax for 5-HT,"[1]; midbrain synaptosomes, 10 nM",significantly increased the SERT Vmax for 5-HT
same,5-HT transport at peak stimulation,"[1]; midbrain synaptosomes, 10 nM, 10 min pretreatment",130-150 % of control levels
same,time at which stimulation of 5-HT uptake reached a maximum,"[1]; midbrain synaptosomes, 10 nM, post-treatment",10 to 20 min
same,concentration at which stimulation of 5-HT transport peaked,"[1]; midbrain synaptosomes, 10 min pretreatment",10 nM
same,Km,[1]; [4],0.8 µM
same,Vmax,[1]; [4],2544+/−281 fmol/mg protein/min
same,effect on 5-HT uptake at high concentration,"[1]; midbrain synaptosomes, exceeding 100 μM, data not shown",induced a decrease in 5-HT uptake
same,SERT activity in striatal synaptosomes,"[1]; striatal synaptosomes, 10 min",IB-MECA-insensitive SERT activity
same,concentration window for stimulation of 5-HT transport,"[1]; synaptosomes, for 20 min",10 to 30 nM
same,effect on DA uptake,[3],no stimulation
